Assay results taken from patent US20090203685A1, “ANTI-PROLIFERATIVE COMPOUNDS FROM A 3-ARYL-COUMARINE OR 3-ARYL-QUINOLIN-2-ONE AND USES THEREOF” (EOS (ETHICAL ONCOLOGY SCIENCE) S.P.A., priority 2006, published 2009).

What was measured:
Jurkat = test: Cell cycle analysis, Jurkat; format: cell-based; conditions: 500 nM
Experimental: (§1) The cells are pelleted by gentle centrifugation 1200 rpm/5 min/4° C., then the supernatant is discarded and the cells are fixed with 1 mL of PBS/Ethanol 70% overnight at −20° C. The tubes are then centrifuged during 5 minutes at 1200 rpm and the supernatant is removed. The pellet is then re-suspended in 450 μL of PBS before 50 μL of RNAse (1 mg/mL) and 5 μL of propidium iodide (2 mg/mL) are added. Each tube is left 30 minutes at 37° C. and immediately analysed by flow cytometry after incubation.
(§2) A biparametric dot plot representation FL3 peak vs FL3 integer is plotted and the cells located on the diagonal are gated and analysed on a histogram representing the number of cells as a function of the FL3 peak.
(§3) To assess the relative position of cursors defining relative proportion of cells in subG1, G1, S or G2 phase of the cell cycle, G1 and G2 peaks are to be defined first:
(§4) The G1 peak is defined as the major peak in absence of treatment (generally X=200);
(§5) The G2 peak is centered on the value which is twice the value of the G1 peak (generally X=400).
(§6) Cells in subG1 phase are plotted in the part of the histogram preceding the G1 peak (generally X<200) and cells in S phase are enclosed in the area between the G1 and G2 peaks.
(§7) On this graphic, subG1, G1, S and G2/M phases of the cell cycle can thus be defined.
(§8) Viability and cell cycle profile, tested with compound (01), at 500 nM: […]

A375 = test: Cell cycle analysis, A375; format: cell-based; conditions: 500 nM
Experimental: as §1, §2, §3, §4, §5, §6, §7, §8

U937 cells = test: Apoptosis assays by flow cytometry (caspase 3, annexin-V, sub-G1, G2/M, PI) in U937 cells; format: cell-based, human; conditions: 0.5 μM, 4 to 24 hours
Experimental: FIG. 4: This figure depicts the time course of cellular effects induced by 0.5 μM of compound 01 in U937 cells.
The percentage of cells showing activated Caspase 3 and phosphadityl serine exposure at the outer face of the plasma membrane were determined by flow cytometry, according the enclosed protocols. Both assays enable to detect early markers of apoptosis. […] Such DNA content is classically used as a marker of apoptosis. […] Finally, in this same experiment, the percentage of dead cells was determined by incorporation of propidium iodine. […]
Wells corresponding to 4, 6, 8, 10 hours of incubation and Control 1 were analyzed on day 1.
Wells corresponding to 12, 14, 16, 20, 24 hours of incubation and Control 2 were analyzed on day 2. […]
Briefly, 5×10^5 cells were pelleted by centrifugation 1600 rpm/4° C., resuspended in 100 μl of ice-cold 1× Annexin-V Binding Buffer containing 1 μl of Annexin V-FITC solution and 5 μl of PI (250 μg/ml). After 15 minutes of incubation on ice in the dark, 400 μl of 1× binding buffer were added and cell preparations analysed by flow cytometry. […]
For each data point, a minimum of 20.000 cells were analysed.
Caspase-3,7 activity and Annexin-V binding were quantified using the FL-1 channel while PI staining was quantified using the FL-4 channel. […]

PC3 = test: Cell cycle analysis, PC3; format: cell-based; conditions: 500 nM
Experimental: as §1, §2, §3, §4, §5, §6, §7, §8

NCI-H460 = test: Cell cycle analysis, NCI-H460; format: cell-based, human; conditions: 500 nM
Experimental: as §1, §2, §3, §4, §5, §6, §7, §8

[1] = Viability (propidium iodide staining), MRC5; format: cell-based; conditions: human, MRC5 non-transformed fibroblasts, 500 nM
Experimental: (§9) Propidium iodide (PI) cannot normally cross the cell membrane; it is thus excluded by viable cells but not from dying or dead cells, having a damaged membrane, where it intercalates into double-stranded nucleic acids and fluoresces when excited at 488 nm.
(§10) The cells are pelleted by gentle centrifugation 1200 rpm/5 min/4° C., then the supernatant is discarded and replaced by 1 mL of fresh medium. One hundred microliters of propidium iodide (40 μg/mL) are added to 400 μL of the cell suspension in a FACS tube and viability is measured by flow cytometry as the percentage of cells whose fluorescence recorded on FL-3 channel is comprised between 0 and 2.
as §8

MRC5 = test: Viability (propidium iodide staining), MRC5; format: cell-based; conditions: 500 nM
Experimental: as §9, §10, §8

[2] = Viability (propidium iodide staining), A375; format: cell-based; conditions: human, A375 cells (melanoma), 500 nM
Experimental: as §9, §10, §8

SMILES: COc1cc(NC(=S)NC(=O)/C=C/c2ccco2)ccc1-c1cc2ccccc2oc1=O [Compound 01, (2E)-3-(2-furyl)-N-({[3-methoxy-4-(2-oxo-2H-chromen-3-yl)phenyl]amino}carbonothioyl)acrylamide]
- Cell cycle profile - 72 h (Jurkat): Strong sub-G1
- Cell cycle profile - 72 h (A375; G2/M phase fraction): G2/M accumulation
- Cell cycle profile - 72 h (A375; sub-G1 fraction): Strong sub-G1
- Cytostatic effect on U937 cells (early increase of G2/M population) (U937 cells): cytostatic effect
- Induction of apoptosis (activated caspase 3, phosphatidylserine exposure, sub-G1 DNA content) (U937 cells): induces apoptosis
- Cell cycle profile - 72 h (PC3): G2/M accumulation
- Cell cycle profile - 72 h (NCI-H460; G2/M phase fraction): G2/M accumulation
- Cell cycle profile - 72 h (NCI-H460; sub-G1 fraction): Strong sub-G1
- viability at 48 h, 0.5 µM ([1]; 48 h): 94%
- viability at 72 h, 0.5 µM ([1]; 72 h): 89%
- Effect on control non-transformed cells (MRC5) (MRC5): unaffected
- viability at 48 h, 0.5 µM ([2]; 48 h): 65%
- viability at 72 h, 0.5 µM ([2]; 72 h): 35%
